Results from paper PMC4920105, “Identification and Development of 2,3-Dihydropyrrolo[1,2-a]quinazolin-5(1H)-one Inhibitors Targeting Bromodomains within the Switch/Sucrose Nonfermenting Complex” (Journal of Medicinal Chemistry, 2016).
Where “and” joins values, the source holds several entries; their conditions need not be identical. Equal entries are not always repeated.

What was measured:
[1] = Solubility (qualitative); type: physicochemical; settings: for DMSO and aqueous solubility: chlorinated derivatives
[2] = target: T1, PB1(5) (Homo sapiens, UniProt Q86U86); assay: DSF Tm shift assay, PB1(5) bromodomain; type: binding; settings: for PB1(5) ΔTm / ΔTm at 10 µM: 10 μM inhibitor, average of three replicates; for PB1(5) Tm (Supplementary Table 2): average of three replicates and standard deviation
T1 construct: the fifth bromodomain of PB1 (PB1(5)); made in house
T1 sequence (Q86U86 653-774): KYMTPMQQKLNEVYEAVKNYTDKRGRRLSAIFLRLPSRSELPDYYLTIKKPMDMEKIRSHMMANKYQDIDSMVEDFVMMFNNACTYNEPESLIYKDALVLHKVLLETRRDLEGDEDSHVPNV

[3] = target: T1, PB1(5); assay: Isothermal calorimetry (ITC), PB1(5) bromodomain; type: binding; settings: for K × 10^6 (M^–1): 293.15 K
[4] = target: T2, BRD9A (Homo sapiens, UniProt Q9H8M2); assay: DSF Tm shift assay, BRD9A; type: binding; settings: single measurement
T2 construct: Bromodomain DSF Tm assays were performed; made in house
T2 sequence (Q9H8M2 136-240 limits assumed): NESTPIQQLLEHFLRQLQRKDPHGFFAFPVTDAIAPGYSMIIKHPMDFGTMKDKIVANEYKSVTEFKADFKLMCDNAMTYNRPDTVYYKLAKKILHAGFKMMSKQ
Experimental: (§1) Protein Expression and Purification.
(§2) Proteins were cloned, expressed, and purified as previously described.1 […]
(§3) Bromodomain DSF Tm assays were performed using a Mx3005p real-time PCR machine (Agilent) and low profile 96-well PCR plates (AB-0700, Life Technologies). Protein was buffered in 10 mM HEPES, pH 7.5, 500 mM NaCl and assayed at a concentration of 2 µM with 10 µM inhibitor concentration and 1:1000 SyproOrange (Invitrogen). Excitation and emission filters were set to 465 and 590 nm respectively. The temperature was raised by 3 °C per 1 min from 25–95 °C, and fluorescence readers were taken at each interval. Data analysis was carried out as described previously.2
(§4) AlphaScreen Displacement Assay.
(§5) AlphaScreen assays were based on a reported protocol, with minor variations.3 In place of a biotinylated peptide, a biotinylated ligand was used at 25 nM final concentration.
(§6) Isothermal Calorimetry Experiments.
(§7) Calorimetric experiments were performed on a VP-ITC micro-calorimeter (MicroCalTM, LLC Northampton, MA). Protein solutions were buffer exchanged by dialysis into buffer 20 mM Hepes pH 7.5, 150 mM NaCl, and 0.5 mM TCEP. All measurements were carried out at 293.15 K while stirring at 286 rpm. The micro syringe was loaded with protein solutions ranging from […]

[5] = target: T3, BRPF1B (Homo sapiens, UniProt P55201); assay: DSF Tm shift assay, BRPF1B; type: binding; settings: single measurement
T3 construct: Bromodomain DSF Tm assays were performed; made in house
T3 sequence (P55201 628-732 limits assumed): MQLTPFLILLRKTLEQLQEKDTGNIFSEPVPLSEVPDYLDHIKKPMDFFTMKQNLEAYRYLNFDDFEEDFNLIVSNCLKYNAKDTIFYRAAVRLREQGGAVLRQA
Experimental: as §1, §2, §3, §4, §5, §6, §7

[6] = target: T4, CECR2A (Homo sapiens, UniProt Q9BXF3); assay: DSF Tm shift assay, CECR2A; type: binding; settings: single measurement
T4 construct: Bromodomain DSF Tm assays were performed; made in house
T4 sequence (Q9BXF3 434-538 limits assumed): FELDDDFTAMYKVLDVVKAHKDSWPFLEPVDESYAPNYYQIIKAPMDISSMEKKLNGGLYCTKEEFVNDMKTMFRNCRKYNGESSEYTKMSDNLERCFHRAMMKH
Experimental: as §1, §2, §3, §4, §5, §6, §7

[7] = target: T5, BRD4(1) (Homo sapiens, UniProt O60885); assay: DSF Tm shift assay, BRD4(1); type: binding; settings: 10 μM, single measurement
T5 construct: representative bromodomains (PCAF, BRD4(1), CREBBP, TRIM33B) from other subfamilies using DSF; made in house
Experimental: as §1, §2, §3, §4, §5, §6, §7

[8] = target: T6, CREBBP (Homo sapiens, UniProt Q92793); assay: DSF Tm shift assay, CREBBP; type: binding; settings: 10 μM, single measurement
T6 construct: representative bromodomains (PCAF, BRD4(1), CREBBP, TRIM33B) from other subfamilies using DSF; made in house
T6 sequence (Q92793 1085-1192 limits assumed): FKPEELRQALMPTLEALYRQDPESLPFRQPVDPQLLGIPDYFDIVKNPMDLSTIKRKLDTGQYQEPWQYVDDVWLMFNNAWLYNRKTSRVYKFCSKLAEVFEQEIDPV
Experimental: as §1, §2, §3, §4, §5, §6, §7

[9] = target: T7, PCAF (Homo sapiens, UniProt Q92831); assay: DSF Tm shift assay, PCAF; type: binding; settings: 10 μM, single measurement
T7 construct: representative bromodomains (PCAF, BRD4(1), CREBBP, TRIM33B) from other subfamilies using DSF; made in house
T7 sequence (Q92831 723-827 limits assumed): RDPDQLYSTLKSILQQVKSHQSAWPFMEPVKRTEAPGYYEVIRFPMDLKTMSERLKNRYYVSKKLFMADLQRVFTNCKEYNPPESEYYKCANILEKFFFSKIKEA
Experimental: as §1, §2, §3, §4, §5, §6, §7

[10] = target: T8, TRIM33B (Homo sapiens, UniProt Q9UPN9); assay: DSF Tm shift assay, TRIM33B; type: binding; settings: 10 μM, single measurement
T8 construct: representative bromodomains (PCAF, BRD4(1), CREBBP, TRIM33B) from other subfamilies using DSF; made in house
T8 sequence (Q9UPN9 957-1063 isoform Q9UPN9-2 limits assumed): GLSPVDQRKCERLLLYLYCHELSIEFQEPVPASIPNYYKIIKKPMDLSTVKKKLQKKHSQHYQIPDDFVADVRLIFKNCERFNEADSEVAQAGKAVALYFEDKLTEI
Experimental: as §1, §2, §3, §4, §5, §6, §7

[11] = target: T9, SMARCA2B (Homo sapiens, UniProt P51531); assay: Isothermal calorimetry (ITC), SMARCA2B; type: binding
T9 construct: made in house
T9 sequence (P51531 1373-1493 isoform P51531-2 limits assumed): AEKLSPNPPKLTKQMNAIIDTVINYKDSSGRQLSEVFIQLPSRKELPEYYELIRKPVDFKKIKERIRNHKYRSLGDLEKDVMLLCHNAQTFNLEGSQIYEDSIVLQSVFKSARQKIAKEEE
Experimental: as §1, §2, §3, §4, §5, §6, §7
for the cell. All injections for PB1(5) were performed using an initial injection of 2 μl followed by 30 injections of 8 μl with a duration of 16 sec per injection and a spacing of 240 sec between injection. Injections for SMARCA2B and SMARCA4 were performed using an initial injection of 2 μl followed by 35 injections of 8 μl with a duration of 16 sec per injection and a spacing of 240 sec between injection.The data were analyzed with the MicroCal ORIGIN software package employing a single binding site model. The first data point was excluded from the analysis.
Thermodynamic parameters were calculated (ΔG = ΔH - TΔS = -RTlnKB where ΔG, ΔH and ΔS are the changes in free energy, enthalpy and entropy of binding, respectively).
Fluorescence Recovery After Photobleaching (FRAP)
FRAP studies were performed essentially as described. In brief, U2OS cells were transfected (Fugene HD; Roche) with mammalian over-expression constructs encoding GFP fused to the N-terminus of full length wild-type or mutant SMARCA2 (1). The imaging system consisted of a Zeiss LSM 710 laser-scanning and control system (Zeiss) coupled to an inverted Zeiss Axio Observer.Z1 microscope equipped with a high-numerical-aperture (N. A. 1.3) 40 x oil immersion objective (Zeiss). […] FRAP and GFP fluorescence imaging were both carried out with an argon-ion laser (488 nm) and with a PMT detector set to detect fluorescence between 500-550 nm. […] The image datasets and fluorescence recovery data were exported from ZEN 2009, the microscope control

[12] = target: SMARCA4 (Homo sapiens, UniProt P51532); assay: Isothermal calorimetry (ITC), SMARCA4; type: binding
SMARCA4, sequence (P51532 1453-1564 limits assumed): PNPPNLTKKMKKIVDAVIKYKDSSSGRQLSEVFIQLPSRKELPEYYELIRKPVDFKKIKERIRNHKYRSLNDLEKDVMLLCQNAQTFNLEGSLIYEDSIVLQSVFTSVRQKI

O=c1nc2n(c3ccccc13)CC/C2=C\c1ccoc1 [Compound 1]
aqueous solubility [1]: poor

O=c1nc2n(c3ccccc13)CCC2 [Compound 4, 2,3-Dihydropyrrolo[1,2-a]quinazolin-5(1H)-one]
PB1(5) ΔTm [2]: no interaction | ΔTm at 10 µM [2]: 0 °C

CCCN(/C=C1\CCn2c1nc(=O)c1ccccc12)CCC [Compound 7, (E)-3-((Dipropylamino)methylene)-2,3-dihydropyrrolo[1,2-a]quinazolin-5(1H)-one]
PB1(5) ΔTm [2]: moderate activity

CC(C)N(/C=C1\CCn2c1nc(=O)c1ccccc12)C(C)C [Compound 8, (E)-3-((Diisopropylamino)methylene)-2,3-dihydropyrrolo[1,2-a]quinazolin-5(1H)-one]
PB1(5) ΔTm [2]: loss of binding

O=c1nc2n(c3ccccc13)CC/C2=C\N1CCCC1 [Compound 9, (E)-3-(Pyrrolidin-1-ylmethylene)-2,3-dihydropyrrolo[1,2-a]quinazolin-5(1H)-one]
PB1(5) Tm (Supplementary Table 2) [2]: 4.3 ± 0.4 °C | TΔS [3]: 4.7 kcal/mol and 4.717 kcal/mol | ΔG [3]: -7.577 kcal/mol | K × 10^6 (M^–1) [3]: 0.44 × 10^6 M^–1 | BRD9A Tm [4]: 1.0 °C | BRPF1B Tm [5]: 0.0 °C | CECR2A Tm [6]: 0.2 °C

O=c1nc2n(c3ccccc13)CC/C2=C\N1CCCCC1 [Compound 10, (E)-3-(Piperidin-1-ylmethylene)-2,3-dihydropyrrolo[1,2-a]quinazolin-5(1H)-one]
TΔS [3]: 5.3 kcal/mol and 5.274 kcal/mol | ΔG [3]: -7.926 kcal/mol | K × 10^6 (M^–1) [3]: 0.80 × 10^6 M^–1 | BRD9A Tm [4]: 0.2 °C | BRPF1B Tm [5]: 0.0 °C | CECR2A Tm [6]: 0.1 °C

O=c1nc2n(c3ccccc13)CC/C2=C\N1CCOCC1 [Compound 11]
BRD9A Tm [4]: 0.8 °C | BRPF1B Tm [5]: 0.0 °C | CECR2A Tm [6]: 0.1 °C

CN1CCN(/C=C2\CCn3c2nc(=O)c2ccccc23)CC1 [Compound 12]
PB1(5) Tm (Supplementary Table 2) [2]: 5.8 ± 0.1 °C | BRD9A Tm [4]: 0.5 °C | BRPF1B Tm [5]: 0.2 °C | CECR2A Tm [6]: 0.3 °C

CCN1CCN(/C=C2\CCn3c2nc(=O)c2ccccc23)CC1 [Compound 13]
PB1(5) Tm (Supplementary Table 2) [2]: 5.0 ± 0.5 °C | BRD9A Tm [4]: 0.8 °C | BRPF1B Tm [5]: 0.0 °C | CECR2A Tm [6]: 0.1 °C

CC(C)(C)OC(=O)N1CCN(/C=C2\CCn3c2nc(=O)c2ccccc23)CC1 [Compound 14]
PB1(5) Tm (Supplementary Table 2) [2]: 4.7 ± 0.6 °C | BRD9A Tm [4]: 0.7 °C | BRPF1B Tm [5]: 0.2 °C | CECR2A Tm [6]: 0.1 °C

CN1CCCN(/C=C2\CCn3c2nc(=O)c2ccccc23)CC1 [Compound 15]
PB1(5) Tm (Supplementary Table 2) [2]: 3.5 ± 0.2 °C | BRD9A Tm [4]: 0.0 °C | BRPF1B Tm [5]: 0.2 °C | CECR2A Tm [6]: 0.0 °C

Cc1cccc2c1c(=O)nc1n2CCC1 [Compound 16c]
ΔTm at 10 µM [2]: 0 °C

O=c1nc2n(c3cccc(F)c13)CCC2 [Compound 17c]
ΔTm at 10 µM [2]: -0.1 ± 0.8 °C

CN(C)/C=C1\CCn2c1nc(=O)c1c(Cl)cccc12 [Compound 18]
TΔS [3]: 3.018 kcal/mol and 3.0 kcal/mol | ΔG [3]: -9.195 kcal/mol | K × 10^6 (M^–1) [3]: 7.29 × 10^6 M^–1 | BRD4(1) Tm [7]: 0.3 °C | CREBBP Tm [8]: 0.0 °C | PCAF Tm [9]: 0.2 °C | TRIM33B Tm [10]: 0.2 °C

O=c1nc2n(c3cccc(Cl)c13)CCC2 [Compound 18c, 6-chloro-2,3-dihydropyrrolo[1,2-a]quinazolin-5(1H)-one]
ΔTm at 10 µM [2]: 2.6 ± 0.3 °C

O=c1nc2n(c3cccc(Br)c13)CCC2 [Compound 19c]
ΔTm at 10 µM [2]: 3.1 ± 0.3 °C

COc1cccc2c1c(=O)nc1n2CCC1 [Compound 20c]
ΔTm at 10 µM [2]: -0.6 ± 0.5 °C

O=c1nc2n(c3cccc(O)c13)CCC2 [Compound 21c]
ΔTm at 10 µM [2]: -0.1 ± 0.4 °C

O=c1nc2n(c3cccc(Cl)c13)CC/C2=C\N1CCCCC1 [Compound 24]
TΔS [3]: 4.043 kcal/mol and 4.0 kcal/mol | ΔG [3]: -9.243 kcal/mol | K × 10^6 (M^–1) [3]: 7.86 × 10^6 M^–1 | BRD4(1) Tm [7]: 1.0 °C | CREBBP Tm [8]: 0.0 °C | TRIM33B Tm [10]: -0.1 °C | DMSO and aqueous solubility [1]: greatly improved

O=c1nc2n(c3cccc(Cl)c13)CC/C2=C\N1CCOCC1 [Compound 25]
CREBBP Tm [8]: 0.1 °C | PCAF Tm [9]: 0.8 °C | TRIM33B Tm [10]: 0.9 °C

CN1CCN(/C=C2\CCn3c2nc(=O)c2c(Cl)cccc23)CC1 [Compound 26]
ΔG [3]: -9.272 kcal/mol | K × 10^6 (M^–1) [3]: 8.09 × 10^6 M^–1 | K×10^6 (M-1) [11]: 3.81 ×10^6 M-1 | TΔS [11]: 5.508 kcal/mol | ΔG [11]: -8.810 kcal/mol | ΔH [11]: -3.302 kcal/mol | K×10^6 (M-1) [12]: 2.40 ×10^6 M-1 | TΔS [12]: 4.835 kcal/mol | ΔG [12]: -4.838 kcal/mol | ΔH [12]: -3.727 kcal/mol | DMSO and aqueous solubility [1]: greatly improved

CCN1CCN(/C=C2\CCn3c2nc(=O)c2c(Cl)cccc23)CC1 [Compound 27]
TΔS [3]: 4.7 kcal/mol | ΔG [3]: -9.198 kcal/mol | K × 10^6 (M^–1) [3]: 7.05 × 10^6 M^–1 | DMSO and aqueous solubility [1]: greatly improved

CCC(/C=C1\CCn2c1nc(=O)c1c(Cl)cccc12)CC [Compound 28]
TΔS [3]: 2.362 kcal/mol and 2.3 kcal/mol | ΔG [3]: -9.110 kcal/mol | K×10^6 (M-1) [12]: 0.49 ×10^6 M-1 | TΔS [12]: 6.446 kcal/mol | ΔG [12]: -7.620 kcal/mol | ΔH [12]: -1.174 kcal/mol
